# Results from publication PMC4215196 (Journal of nuclear medicine : official publication, Society …, 2009).
# Key:
# B16 melanoma = conditions: C57BL6 mice bearing B16 melanoma, 24 h; cited from earlier work
# [1] = In vitro stability in mouse serum; type: in vitro ADME; conditions: for percentage of intact probe: 37°C
# A375M tumors = conditions: µPET
# [2] = µPET ROI analysis, normal lung
# B16F10 cells = assay: In vitro cell uptake in B16F10 cells
# [3] = system: B16F10 melanoma lung metastases; assay: µPET ROI analysis, B16F10 lung metastases model; conditions: lungs harboring metastasis
# [4] = system: B16F10 pulmonary metastases; assay: Biodistribution in B16F10 lung metastases bearing mice; conditions: 2 h p.i.
# B16F10 melanoma = assay: Biodistribution in subcutaneous B16F10 tumor bearing mice
# [5] = subcutaneous B16F10 tumor bearing mice, 2 h p.i.
structure (smiles),measurement,setting,value
"CCN(CC)CCNC(=O)c1ccc([125I])cc1 [^125I-BZA, N-(2-diethylaminoethy1)-4-^125I-iodo-benzamide]",tumor-to-blood ratio,B16 melanoma,37.3 ± 6.9
"CCN(CC)CCNC(=O)c1ccc([18F])cc1 [^18F-FBZA, ^18F-N-[2-(diethylamino)ethyl]-4-fluoro-Benzamide]",percentage of intact probe,[1]; 30 min incubation,94.1%
same,percentage of intact probe,[1]; 60 min incubation,93.5%
same,percentage of intact probe,[1]; 120 min incubation,87.8%
same,percentage of intact probe,[1]; 150 min incubation,85.1%
same,Defluorination,[1]; up to 150 min,not observed
same,"tumor uptake, PET ROI analysis",A375M tumors,0.86 ± 0.03 %ID/g
same,"lung uptake, µPET ROI analysis",[2],1.2 ± 0.2 %ID/g
same,cellular accumulation,"B16F10 cells; B16F10 cells pretreated with L-tyrosine (2.0 mM) 24 h, 4°C, 30 minutes",4.5 ± 0.5%
same,cell uptake,"B16F10 cells; B16F10 cells pretreated with L-tyrosine (2.0 mM) 24 h, 37°C, 30 minutes",10.7 ± 0.8%
same,cellular accumulation,"B16F10 cells; non-treated B16F10 cells, 2-hour incubation, 4 °C",0.49 ± 0.03%
same,cellular accumulation,"B16F10 cells; non-treated B16F10 cells, 2-hour incubation, 37 °C",0.52 ± 0.1%
same,uptake at 4°C less than cellular uptake at 37°C,"B16F10 cells; tyrosine stimulated B16F10 cells, 30 minutes",58%
same,fold increase of uptake compared to non-treated B16F10 cells,"B16F10 cells; tyrosine stimulated cells, 37°C",18–25 fold
same,"lung uptake, µPET ROI analysis",[3]; tumor dose 0.4 × 10^6 B16F10 cells,9.0 ± 0.4 %ID/g
same,"lung uptake, µPET ROI analysis",[3]; tumor dose 0.8 × 10^6 B16F10 cells,15.3 ± 1.1 %ID/g
same,Uptake Ratio Lung / Blood,[4]; lung metastases from 0.2 × 10^6 B16F10 cells,24.7 ± 13.5
same,Uptake Ratio Lung / Blood,[4]; lung metastases from 0.4 × 10^6 B16F10 cells,38.9 ± 10.3
same,tumor to brain ratio,"B16F10 melanoma; B16F10 model, 1 h",5.14 ± 1.10
same,lung-to-blood ratio,"B16F10 melanoma; B16F10 subcutaneous tumor bearing mice, 2 h",4.72 ± 0.46
same,Uptake Ratio Tumor / Blood,B16F10 melanoma; [5],34.0 ± 13.2
same,Uptake Ratio Tumor / Muscle,B16F10 melanoma; [5],23.3 ± 10.1
